According to the supplement of paper PMC10307832:

Experiments:
Experiment in all cases: relative viability (nuclei count vs DMSO), 5 days (fraction); higher = more cells survive
[1] = compound: C1=CC=C2C(=C1)N=C(S2)C(C#N)C3=NC(=NC=C3)NCCC4=CN=CC=C4 + O=C(c1cc(Cc2n[nH]c(=O)c3ccccc23)ccc1F)N1CCN(C(=O)C2CC2)CC1 [Olaparib] (partner 8 µM)
Procedure, shortened: (§1)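 Nuclei were stained with Hoechst during a one-step fixation (final 0.05% Triton X-100, 1% formaldehyde, 1 ug/ml Hoechst) carried out 5 days after dosing, then counted on 4× images. The cells, lung cancer lines in 1536-well plates, had been dosed by pin tool the day after seeding with one drug alone or a fixed anchor-drug dose plus five library-drug doses (not always all listed) in √10 steps. Relative viability is the nuclei count in treated wells divided by that in vehicle wells, and each value is the median of duplicate plates.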

NVP-TAE684 + Foretinib = compound: COc1cc(N2CCC(N3CCN(C)CC3)CC2)ccc1Nc1ncc(Cl)c(Nc2ccccc2S(=O)(=O)C(C)C)n1 [NVP-TAE684] + COc1cc2c(Oc3ccc(NC(=O)C4(C(=O)Nc5ccc(F)cc5)CC4)cc3F)ccnc2cc1OCCCN1CCOCC1 [Foretinib] (partner 0.25 µM)
Procedure, shortened: as §1

NVP-TAE684 + Pemetrexed = compound: COc1cc(N2CCC(N3CCN(C)CC3)CC2)ccc1Nc1ncc(Cl)c(Nc2ccccc2S(=O)(=O)C(C)C)n1 [NVP-TAE684] + Nc1nc2[nH]cc(CCc3ccc(C(=O)N[C@@H](CCC(=O)O)C(=O)O)cc3)c2c(=O)[nH]1 [Pemetrexed] (partner 0.2 µM)
Procedure, shortened: as §1

CUDC-101 + Pemetrexed = compound: C#Cc1cccc(Nc2ncnc3cc(OC)c(OCCCCCCC(=O)NO)cc23)c1 [CUDC-101] + Nc1nc2[nH]cc(CCc3ccc(C(=O)N[C@@H](CCC(=O)O)C(=O)O)cc3)c2c(=O)[nH]1 [Pemetrexed] (partner 0.2 µM)
Procedure, shortened: as §1

NVP-TAE684 + Luminespib = compound: COc1cc(N2CCC(N3CCN(C)CC3)CC2)ccc1Nc1ncc(Cl)c(Nc2ccccc2S(=O)(=O)C(C)C)n1 [NVP-TAE684] + CCNC(=O)c1noc(-c2cc(C(C)C)c(O)cc2O)c1-c1ccc(CN2CCOCC2)cc1 [Luminespib] (partner 0.01 µM)
Procedure, shortened: as §1

Cell Line | relative viability ([1]; first compound 0.005 µM) | relative viability ([1]; first compound 0.01581 µM) | relative viability ([1]; first compound 0.05 µM) | relative viability ([1]; first compound 0.1581 µM) | relative viability ([1]; first compound 0.5 µM) | relative viability (NVP-TAE684 + Foretinib; first compound 0.2 µM) | relative viability (NVP-TAE684 + Foretinib; first compound 0.6325 µM) | relative viability (NVP-TAE684 + Foretinib; first compound 2 µM) | relative viability (NVP-TAE684 + Pemetrexed; first compound 0.2 µM) | relative viability (NVP-TAE684 + Pemetrexed; first compound 0.6325 µM) | relative viability (NVP-TAE684 + Pemetrexed; first compound 2 µM) | relative viability (CUDC-101 + Pemetrexed; first compound 0.01 µM) | relative viability (CUDC-101 + Pemetrexed; first compound 0.03162 µM) | relative viability (CUDC-101 + Pemetrexed; first compound 0.1 µM) | relative viability (CUDC-101 + Pemetrexed; first compound 0.3162 µM) | relative viability (CUDC-101 + Pemetrexed; first compound 1 µM) | relative viability (NVP-TAE684 + Luminespib; first compound 0.2 µM) | relative viability (NVP-TAE684 + Luminespib; first compound 0.6325 µM) | relative viability (NVP-TAE684 + Luminespib; first compound 2 µM)
NCI-H2009 | 0.667 | 0.669 | 0.664 | 0.438 | 0.684 | 1.07 | 1.14 | 1.09 | 1.06 | 1.01 | 0.894 | 1.05 | 1.02 | 1.02 | 0.994 | 0.997 | 0.925 | 1.05 | 0.944
NCI-H2170 | 0.592 | 0.686 | 0.621 | 0.598 | 0.458 | 1.1 | 0.997 | 0.999 | 0.274 | 0.27 | 0.228 | 0.281 | 0.257 | 0.24 | 0.234 | 0.254 | 0.747 | 0.618 | 0.663
NCI-H1648 |  | 1.02 |  | 0.977 | 1.09 |  |  |  |  |  | 0.415 | 0.826 | 0.744 | 0.805 | 0.741 | 0.535 |  |  | 
NCI-H1623 |  |  |  |  |  | 0.865 | 0.899 | 0.65 |  |  |  |  |  |  |  |  | 0.531 | 0.54 | 0.322
LU99A | 0.247 | 0.272 |  | 0.265 | 0.232 | 0.873 | 0.83 | 0.365 | 0.192 | 0.147 | 0.194 | 0.205 | 0.197 | 0.179 | 0.18 | 0.176 | 0.301 | 0.259 | 0.253
PC-3 [JPC-3] | 1.01 |  | 1.08 | 1.12 | 0.679 | 1.2 | 0.99 | 0.793 | 1.16 | 1.08 | 0.903 | 1.12 | 1.06 | 0.842 | 0.439 | 0.393 | 0.614 | 0.639 | 0.601
A549 | 0.488 | 0.236 | 0.321 | 0.409 | 0.232 | 1.01 |  | 0.659 |  |  |  |  |  |  |  |  |  |  | 
HCC-44 | 0.994 | 1 | 0.987 | 1.01 | 0.968 |  |  |  | 0.652 |  | 0.606 | 0.629 | 0.657 | 0.71 | 0.645 | 0.693 |  | 0.912 | 0.272
H3255 | 0.55 | 0.594 | 0.603 | 0.575 | 0.534 | 0.882 | 0.804 | 0.631 | 0.531 | 0.519 | 0.449 | 0.62 | 0.543 | 0.408 | 0.449 | 0.304 | 0.897 | 0.828 | 0.765
LXF-289 | 0.966 | 1.13 | 1.1 | 1.17 | 0.979 | 1.05 | 0.958 | 0.715 | 0.874 | 0.983 | 0.805 | 0.881 | 0.888 | 0.873 | 0.904 | 0.805 | 0.583 | 0.776 | 0.425
